# Laboratory results reported in ChEMBL document CHEMBL1201862, “PubChem BioAssay data set” (2004).
#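 Cultured in 96-well plates, cells were exposed to test compound for 48 hours across five concentrations. At the GI50, growth is halved.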 Calls of active or inactive are those of the source. Rule as the data show it: active = GI50 up to about 1.1 µM and inactive = higher.
# Legend:
# Assay in all cases: inhibition of tumour cell growth, NCI panel, 48 h
# UACC-62 = system: UACC-62
# COLO 205 = system: COLO 205
# IGROV-1 = system: IGROV-1
# TK-10 = system: TK-10
# 786-0 = system: 786-0
# MDA-MB-435 = system: MDA-MB-435
# NCI-H226 = system: NCI-H226
# A498 = system: A498
# OVCAR-3 = system: OVCAR-3
# UACC-257 = system: UACC-257
# Hs-578T = system: Hs-578T
# NCI-H23 = system: NCI-H23
# NCI/ADR-RES = system: NCI/ADR-RES
# MDA-N = system: MDA-N
# OVCAR-5 = system: OVCAR-5
# LOX IMVI = system: LOX IMVI
# MCF7 = system: MCF7
# T47D = system: T47D
# ACHN = system: ACHN
# A549 = system: A549
Compound,GI50 (UACC-62),GI50 (COLO 205),GI50 (IGROV-1),GI50 (TK-10),GI50 (786-0),GI50 (MDA-MB-435),GI50 (NCI-H226),GI50 (A498),GI50 (OVCAR-3),GI50 (UACC-257),GI50 (Hs-578T),GI50 (NCI-H23),GI50 (NCI/ADR-RES),GI50 (MDA-N),GI50 (OVCAR-5),GI50 (LOX IMVI),GI50 (MCF7),GI50 (T47D),GI50 (ACHN),GI50 (A549)
O=S(=O)(c1cccc(C(F)(F)F)c1)N1c2ccccc2-n2cccc2C1c1cccnc1 (stereo not given),13.9 µM (inactive),16.5 µM (inactive),40.6 µM (inactive),> 53.8 µM (inactive),> 40.6 µM (inactive),6.3 µM (inactive),> 28.1 µM (inactive),23.3 µM (inactive),> 35.8 µM (inactive),> 36.4 µM (inactive),> 47 µM (inactive),8.49 µM (inactive),5.19 µM (inactive),26.9 µM (inactive),> 50.5 µM (inactive),35.5 µM (inactive),13.9 µM (inactive),7.03 µM (inactive),> 46.5 µM (inactive),17.3 µM (inactive)
CC(=O)OCC1OC(n2c(N)c(C#N)c(-c3ccccc3)c(C#N)c2=S)C(OC(C)=O)C(OC(C)=O)C1OC(C)=O (stereo not given),> 61.8 µM (inactive),> 100 µM (inactive),> 100 µM (inactive),> 100 µM (inactive),21.8 µM (inactive),> 100 µM (inactive),> 61.4 µM (inactive),> 64.4 µM (inactive),> 100 µM (inactive),> 100 µM (inactive),14.6 µM (inactive),> 65.8 µM (inactive),> 100 µM (inactive),> 100 µM (inactive),> 100 µM (inactive),> 100 µM (inactive),> 100 µM (inactive),> 81.1 µM (inactive),> 85.7 µM (inactive),> 100 µM (inactive)
COC1=CC(=O)C2=C(C[C@@]3(C)C(=C2)C(CO)=CC[C@H]3O)C1=O,17.6 µM (inactive),27.5 µM (inactive),14.6 µM (inactive),98.2 µM (inactive),20.7 µM (inactive),20.7 µM (inactive),14 µM (inactive),> 100 µM (inactive),24.9 µM (inactive),18.6 µM (inactive),30.9 µM (inactive),20.4 µM (inactive),23.5 µM (inactive),19 µM (inactive),27 µM (inactive),17.1 µM (inactive),16 µM (inactive),24.6 µM (inactive),18.2 µM (inactive),33.7 µM (inactive)
CCOC(=O)NN(C(=O)OCC)C(C(=O)c1ccccc1)N(NC(=O)OCC)C(=O)OCC,> 100 µM (inactive),> 100 µM (inactive),> 100 µM (inactive),> 100 µM (inactive),> 100 µM (inactive),> 100 µM (inactive),> 100 µM (inactive),> 100 µM (inactive),> 100 µM (inactive),> 100 µM (inactive),> 100 µM (inactive),> 100 µM (inactive),> 100 µM (inactive),> 100 µM (inactive),> 100 µM (inactive),> 100 µM (inactive),> 100 µM (inactive),> 100 µM (inactive),> 100 µM (inactive),> 100 µM (inactive)
NC12CC3CC4C1CC1CC2C(C3)C4(N)C1,> 100 µM (inactive),> 100 µM (inactive),> 100 µM (inactive),50.7 µM (inactive),> 100 µM (inactive),> 100 µM (inactive),> 100 µM (inactive),> 100 µM (inactive),> 100 µM (inactive),> 100 µM (inactive),> 100 µM (inactive),> 100 µM (inactive),> 100 µM (inactive),> 100 µM (inactive),> 100 µM (inactive),> 100 µM (inactive),> 100 µM (inactive),> 100 µM (inactive),> 100 µM (inactive),> 100 µM (inactive)
COc1ccc(NC=O)c(C(O)CCNC(C)=O)c1 (stereo not given),> 100 µM (inactive),> 100 µM (inactive),> 100 µM (inactive),> 100 µM (inactive),> 100 µM (inactive),> 100 µM (inactive),> 100 µM (inactive),> 100 µM (inactive),> 100 µM (inactive),> 100 µM (inactive),> 100 µM (inactive),> 100 µM (inactive),> 100 µM (inactive),> 100 µM (inactive),> 100 µM (inactive),> 100 µM (inactive),> 100 µM (inactive),> 100 µM (inactive),> 100 µM (inactive),> 100 µM (inactive)
O=[N+]([O-])c1ccc(-n2nc3ccc4c(no[n+]4[O-])c3[n+]2[O-])c([N+](=O)[O-])c1,2.73 µM (inactive),1.54 µM (inactive),1.71 µM (inactive),2.86 µM (inactive),2.68 µM (inactive),2.71 µM (inactive),8.24 µM (inactive),5.45 µM (inactive),2.47 µM (inactive),1.75 µM (inactive),2.81 µM (inactive),2.19 µM (inactive),3.16 µM (inactive),2.08 µM (inactive),6.41 µM (inactive),1.77 µM (inactive),1.9 µM (inactive),2.49 µM (inactive),2.45 µM (inactive),16 µM (inactive)
CCC(=O)N(c1ccccc1)C(C)CN1CCC(O)(c2ccccc2)CC1 (stereo not given),> 100 µM (inactive),> 100 µM (inactive),> 100 µM (inactive),> 100 µM (inactive),> 100 µM (inactive),> 100 µM (inactive),> 100 µM (inactive),> 100 µM (inactive),> 100 µM (inactive),> 100 µM (inactive),> 100 µM (inactive),> 100 µM (inactive),> 100 µM (inactive),> 100 µM (inactive),> 100 µM (inactive),> 100 µM (inactive),> 100 µM (inactive),> 100 µM (inactive),> 100 µM (inactive),> 100 µM (inactive)
Cc1c(N)nc([C@H](CC(N)=O)NC[C@H](N)C(N)=O)nc1C(=O)N[C@H](C(=O)N[C@H](C)[C@@H](O)CC(=O)N[C@H](C(=O)NC(O[C@@H]1O[C@@H](C)[C@@H](N)[C@@H](O)[C@H]1O)C(O)c1nc(-c2nc(C(=O)NCCC[S+](C)C)cs2)cs1)[C@@H](C)O)[C@H](O[C@@H]1O[C@@H](CO)[C@@H](O)[C@H](O)[C@@H]1O[C@H]1O[C@H](CO)[C@@H](O)[C@H](OC(N)=O)[C@@H]1O)c1c[nH]cn1 (stereo not given in full),35.4 µM (inactive),> 100 µM (inactive),33.3 µM (inactive),> 100 µM (inactive),13.9 µM (inactive),> 100 µM (inactive),21 µM (inactive),67.1 µM (inactive),95.3 µM (inactive),> 100 µM (inactive),6.17 µM (inactive),> 100 µM (inactive),33.3 µM (inactive),> 100 µM (inactive),> 100 µM (inactive),15.2 µM (inactive),39.4 µM (inactive),> 100 µM (inactive),0.773 µM (active),19.7 µM (inactive)
